Laboratory results published in patent US20130059772A1, “Use of Repeat Sequence Protein Polymers in Personal Care Compositions” (DANISCO US INC., priority 2003, published 2013).

Key:
facial skin [1] = assay: Skin efficacy study: Chromameter a* (skin redness); format: in vivo, human
Description: Eleven impaneled subjects (age 35-70 years) showing clear signs of facial skin aging were provided with a non-moisturizing soap, (AVEENO®), one week prior to the study and were instructed to use the provided soap to wash the face and were required to refrain from excessive UV exposure. After a seven-day conditioning phase, subjects were acclimated to the ambient temperature and humidity for thirty minutes. One side of the face of each subject was designated as the measurement side by random selection by computer. After 30-minute acclimation period, baseline digital photographs were taken, and instrumental measurements, skin replica samples and visual evaluations were made. Photographs were taken, with a Canfield Scientific Camera, of the full face, the periorbital area, and the temporal side of eye. Chromameter (Model CR300, Minolta) measurements were taken from the periorbital area directly under the eye (Chardon et al., Int. J. Cosmet. Sci., 13:191-208 [1991]). Silflo replicas (CuDerm Corporation, Dallas, Tx) were made from the periorbital area adjacent to the temporal side of the eye (Grove et al., J. Am. Acad. Dermatol., 21:631-637 [1998]; and Sun et al 1997 IFSCC Conference, Mexico). […]
Chromometer values for L*, a*, and b* were read and total color value, E, was calculated for each subject. […]

facial skin [2] = assay: Skin efficacy study: image analysis of Silflo replicas (fine line factors); format: in vivo, human
Description: Eleven impaneled subjects (age 35-70 years) showing clear signs of facial skin aging were provided with a non-moisturizing soap, ([…]®), one week prior to the study and were instructed to use the provided soap to wash the face and were required to refrain from excessive UV exposure. After a seven-day conditioning phase, subjects were acclimated to the ambient temperature and humidity for thirty minutes. One side of the face of each subject was designated as the measurement side by random selection by computer. After 30-minute acclimation period, baseline digital photographs were taken, and instrumental measurements, skin replica samples and visual evaluations were made. Photographs were taken, with a Canfield Scientific Camera, of the full face, the periorbital area, and the temporal side of eye. Chromameter (Model CR300, Minolta) measurements were taken from the periorbital area directly under the eye (Chardon et al., Int. J. Cosmet. Sci., 13:191-208 [1991]). Silflo replicas (CuDerm Corporation, Dallas, Tx) were made from the periorbital area adjacent to the temporal side of the eye (Grove et al., J. Am. Acad. Dermatol., 21:631-637 [1998]; and Sun et al […] Conference, Mexico). […] Specifically, the fine line factors, which approximate the number and/or length of facial lines in the 10 evaluated bands of skin replica, were measured. […]

[3] = Glass transition and decomposition temperature (DSC, DMA, TGA); format: physicochemical
Protocol: In this Example, experiments performed to determine the glass transition temperature (Tg) and decomposition temperature of SELP47K. (Example 1) are described. Approximately 10 mg of SELP47K material was crimped in an aluminum (Al) pan, cooled to <−150° C., then heated to >200° C. at 10° C./min under a He (helium) atmosphere. […] This initially appeared to be followed by another endothermic region and the analysis was stopped near 225° C. […] Another sample of material was examined by TGA and found to have mass loss (−8%) from room temperature to approximately 200° C., confirming the broad endotherm observed with the first sample.
A strip of SELP47K was examined by using a dynamic mechanical analyzer (DMA) over the range of −150 to 200° C. […] Another DSC sample was run, pre-heating at 100° C. for 1 hour initially to remove volatiles. The mass loss endotherm was mostly removed, and a transition at 188° C. (half-height) remained. This run was stopped and the sample cooled and examined.

[4] = Water solubility of SELP47K films; format: physicochemical
Description: The coating appeared to be comprised of densely packed intertwining strands. […] Short, single/double strands of material were found in areas where the coating appeared to be less concentrated. Individual strands of material could be seen in the less concentrated, gray areas on the wafer. SEM analysis of the films provide the basis of water-solubility of SELP47K films.

## SELP47K: silk-elastin repeat sequence protein copolymer, head-[(GAGAGS)2(GVGVP)3GKGVP(GVGP)4(GAGAGS)2]13-tail (SEQ ID NO:19), 886 amino acids
Facial skin [1]; 5% aqueous solution applied once to face, 30 Minutes Post, baseline mean 11.05
  Chromameter a* Score, Mean: 10.39
Facial skin [1]; 5% aqueous solution, 30 minutes post vs baseline, p=0.024
  decrease in average a* value (redness of the skin): 6%
Facial skin [2]; 5% aqueous solution applied once to face, 30 Minutes Post, baseline mean 284
  Fine Line Factors, Mean: 246
Facial skin [2]; 5% aqueous solution, 30 minutes after application vs baseline, p=0.05
  decrease in fine line factors: 13%
[3]
  decomposition temperature: 332 °C
[3]; film material, DMA/DSC
  glass transition: approximately 189 °C
[4]; film made out of 10% SELP47K solution
  water solubility of film: water-soluble
[4]; film made out of 20% SELP47K solution
  water solubility of film: water insoluble
